Reference: patent publication US5126336A, “Antibiotic C-3 catechol-substituted cephalosporin compounds, compositions and method of use thereof” (Bristol-Myers Squibb Company, priority 1990, dated 1992)
≈ marks a conversion by molar mass, not a printed value. Read-outs that look alike come from different tables or passages of the source.

What was measured:
[1] = tested on: Gn-Ib: Cephalothin(CET)-resistant E. coli (3) and Kl. pneumoniae (2); experiment: MIC, two-fold serial agar dilution, Gn-Ib; format: cell-based; details: Escherichia coli
Description: (§1) Minimum inhibitory concentrations (MICs) of the present series of cephalosporins were determined against 32 strains of test organisms by two-fold serial agar dilution method in Mueller-Hinton agar. Geometric means of MICs were calculated against six groups of the test organisms which are classified as follows and summarized in Table 1.
Gn-Ib Cephalothin(CET)-resistant E. coli (3) and Kl.

E. coli Juhl A15119 = experiment: MIC, agar dilution; format: cell-based; details: Escherichia coli, JUHLA15119, 18 h; E. coli Juhl (Table 3); read-out: MIC
Description: as §1
(§2) In vivo antibacterial activity was determined against three bacterial infections (S. aureus Smith, E. coli Juhl and P. aeruginosa A9843A) by intramuscular administration to mice just after the bacterial challenge. PD50 values are summarized in Table 3 in comparsion with the MIC values against the corresponding organisms.
(§3) Medium; MuellerHinton agar (pH = 7.2)
(§4) Incubation temperature: 32° C., 18 hr
(§5) Inoculum size; 10^6 cells/ml

S. aureus Smith [2] = experiment: MIC, agar dilution; format: cell-based; details: Staphylococcus aureus, 18 h; S. aureus Smith (Table 3); read-out: MIC
Description: as §1, §2, §3, §4, §5

P. aeruginosa A9843A [3] = experiment: MIC, agar dilution; format: cell-based; details: Pseudomonas aeruginosa, A9843A, 18 h
Description: as §1, §2, §3, §4, §5

E. coli Juhl = experiment: In vivo antibacterial activity, E. coli Juhl infection; details: Escherichia coli, mice, im just after bacterial challenge, read-out: PD50
Description: as §2

[4] = tested on: Gp-Ia: Penicillin(PC)-sensitive S. aureus (5 strains); experiment: MIC, two-fold serial agar dilution, Gp-Ia; format: cell-based; details: Staphylococcus aureus, read-out: Geometric mean of MIC
Description: as §1
Gp-Ia Penicillin(PC)-sensitive S. aureus (5 strains).

[5] = tested on: Gn-III: Ps. aeruginosa (7); experiment: MIC, two-fold serial agar dilution, Gn-III; format: cell-based; details: Pseudomonas aeruginosa, Gn-III, 7 strains, read-out: Geometric mean of MIC
Description: as §1
Gn-III Ps. aeruginosa (7).

[6] = tested on: Gn-II: M.morganii (1), Ent. cloacae (2) and Ser. marcescens (2); experiment: MIC, two-fold serial agar dilution, Gn-II; format: cell-based
Description: as §1
Gn-II M.morganii (1), Ent. cloacae (2) and Ser.

S. aureus Smith [7] = experiment: In vivo antibacterial activity, S. aureus Smith infection; details: Staphylococcus aureus, mice, im just after bacterial challenge, read-out: PD50
Description: as §2

[8] = tested on: Gp-Ib: Penicillin(PC)-resistant S. aureus (5); experiment: MIC, two-fold serial agar dilution, Gp-Ib; format: cell-based; details: Staphylococcus aureus, 5 strains, read-out: Geometric mean of MIC
Description: as §1
Gp-Ib Penicillin(PC)-resistant S. aureus (5).

P. aeruginosa A9843A [9] = experiment: In vivo antibacterial activity, P. aeruginosa A9843A infection; parameters: species or system mice; details: Pseudomonas aeruginosa, A9843A, in Mus musculus, im, read-out: PD50
Description: as §2

[10] = tested on: Gn-Ia: Cephalothin(CET)-sensitive E. coli (2), Kl. pneumoniae (1) and Pr. mirabilis (2); experiment: MIC, two-fold serial agar dilution, Gn-Ia; format: cell-based; details: 5 strains, read-out: Geometric mean of MIC
Description: as §1
Gn-Ia Cephalothin(CET)-sensitive E. coli (2), Kl.
pneumoniae (1) and Pr. mirabilis (2).

SMILES: CC(C)(O/N=C(\C(=O)NC1C(=O)N2C(C(=O)[O-])=C(/C=C/C[N+]3(C)Cc4cc(O)c(O)cc4C3)CSC12)c1csc(N)n1)C(=O)O (stereo not drawn) [Compound Ia, 7-[(Z)-2-(2-Aminothiazol-4-yl)-2-(1-carboxy-1-methylethoxy-imino)acetamido]-3-[(E)-3-(5,6-dihydroxy-2-methyl-2-iso-indolinio)-1-propen-1-yl]-3-cephem-4-carboxylate]
- MIC ([1]; read-out: Geometric mean of MIC, Gn-Ib, 5 strains, Mueller-Hinton agar): 0.23 µg/mL (≈ 0.349 µM)
- MIC ([1]; read-out: Geometric mean of MIC, second run, Gn-Ib, 5 strains): 0.23 µg/mL (≈ 0.349 µM)
- MIC (E. coli Juhl A15119): 0.8 µg/mL (≈ 1.21 µM)
- MIC (S. aureus Smith [2]): 12.5 µg/mL (≈ 19 µM)
- MIC (P. aeruginosa A9843A [3]): 1.6 µg/mL (≈ 2.43 µM)
- ED50 (E. coli Juhl): 0.008 mg/kg
- MIC ([4]; Mueller-Hinton agar): 12.5 µg/mL (≈ 19 µM)
- MIC ([4]; second run): 13 µg/mL (≈ 19.7 µM)
- MIC ([5]; Mueller-Hinton agar): 1.3 µg/mL (≈ 1.97 µM)
- MIC ([5]; second run): 0.33 µg/mL (≈ 0.501 µM)
- MIC ([6]; read-out: Geometric mean of MIC): 0.69 µg/mL (≈ 1.05 µM)
- Geometric mean of MIC ([6]; second run, Gn-II, 5 strains): 0.69 µg/mL
- ED50 (S. aureus Smith [7]): 0.86 mg/kg
- MIC ([8]; Mueller-Hinton agar): 12.5 µg/mL (≈ 19 µM)
- MIC ([8]; second run): 13 µg/mL (≈ 19.7 µM)
- ED50 (P. aeruginosa A9843A [9]): 2 mg/kg
- MIC ([10]; Mueller-Hinton agar): 0.2 µg/mL (≈ 0.304 µM)
- MIC ([10]; second run): 0.23 µg/mL (≈ 0.349 µM)
